Legend:
[1] = test system: MGC-803 human gastric cancer cell line; test: MTT cytotoxicity assay, MGC-803; assay type: cell-based; conditions: mean ± SD from three independent experiments
Protocol: (§1) The in vitro antiproliferative activity of the DHAA derivatives 3a–o and 4a–o against four human cancer cell lines (MGC-803 human gastric cancer cell line, CNE-2 human nasopharyngeal carcinoma cell line, SK-OV-3 human ovarian carcinoma cell line, NCI-H460 human lung cancer cell line) and the human normal liver cell line LO2 were evaluated by MTT (methyl thiazolytetrazolium) assay and compared with the parent compound DHAA and the positive control cisplatin in each panel.
(§2) The cytotoxicity of the compounds was evaluated against NCI-H460, MGC-803, SK-OV-3, CNE-2 and LO2 using an MTT assay. Cells were grown on 96-well micro-plates at a density of 4 × 10^3 cells per well in DMEM (dulbecco’s modified eagle medium) medium with 10% FBS (fetal bovine serum). The plates were incubated at 37 °C with 5% CO2. The cells were then exposed to different concentrations of target compounds and cisplatin and incubated for another 48 h. Control wells were formed by culture media with the maximum concentration of DMSO used in each assay (1‰). The cells were stained with 20 µL of MTT in an incubator for about 4 h. The medium was thrown away and replaced by […] DMSO. The absorbance (OD) value was read at 490 nm on an enzyme labeling instrument. Each experiment was repeated at least three times to obtain the mean values.

[2] = test system: CNE-2 human nasopharyngeal carcinoma cell line; test: MTT cytotoxicity assay, CNE-2; assay type: cell-based; conditions: mean ± SD from three independent experiments
Protocol: as §1, §2

[3] = test system: SK-OV-3 human ovarian carcinoma cell line; test: MTT cytotoxicity assay, SK-OV-3; assay type: cell-based; conditions: mean ± SD from three independent experiments
Protocol: as §1, §2

[4] = test system: NCI-H460 human lung cancer cell line; test: MTT cytotoxicity assay, NCI-H460; assay type: cell-based; conditions: mean ± SD from three independent experiments
Protocol: as §1, §2

[5] = test system: human normal liver cell line LO2; test: MTT cytotoxicity assay, normal LO2 cells; assay type: cell-based; conditions: mean ± SD from three independent experiments
Protocol: as §1, §2

[6] = test system: MGC-803 cells; test: Cell cycle analysis by PI staining and flow cytometry; assay type: cell-based, human; conditions: MGC-803, 48 h
Protocol: To determine the possible role of cell cycle arrest in 4j-induced growth inhibition, MGC-803 cells were treated with different concentrations of compound 4j for 48 h. The cell cycle distribution was investigated by flow cytometric analysis following the staining of DNA with propidium iodide (PI).
The MGC-803 cell line was treated with different concentrations of compound 4j. After 48 h of incubation, cells were washed twice with ice-cold PBS, fixed and permeabilized with ice-cold 70% ethanol at −20 °C overnight. The cells were treated with 100 µg /mL RNase A at 37 °C for 30 min, after being washed with ice-cold PBS, and finally stained with 1 mg/mL propidium iodide (PI) (BD, Pharmingen) in the dark at 4 °C for 30 min. Analysis was performed with the system software (Cell Quest; BD Biosciences, Becton Dickinson FACSAriaIII, NY, USA).

[7] = test system: MGC-803 cells; test: Apoptosis analysis, Annexin-V/FITC and PI, flow cytometry; assay type: cell-based, human; conditions: 48 h, control 9.3%
Protocol: In order to further confirm whether the 4j-induced reduction in cell viability was responsible for the induction of apoptosis, MGC-803 cells were investigated using the PI and Annexin-V/FITC (fluorescein isothiocyanate) and the number of apoptotic cells was estimated by flow cytometry, after the treatment of the MGC-803 cells at concentrations of 5 and 10 µM for 48 h. The results are illustrated in Figure 2.
MGC-803 cells were seeded at a concentration of 2 × 10^6 cells/mL of the DMEM medium with 10% FBS on 6-well plates to the final volume of 2 mL, and then treated with compound 4j at different concentrations for 48 h. After 48 h, the cells were collected and washed twice with PBS and then resuspended in 100 µL 1 × binding buffer, The cells were subjected to 5 µL of FITC Annexin V and 5 µL propidium iodide (PI) staining using an annexin-V FITC apoptosis kit (BD, Pharmingen) and incubated for 30 min at RT (25 °C) in the dark. Then, 100µL 1× binding buffer were added. The apoptosis ratio was quantified by system software (Cell Quest; BD Biosciences, Becton Dickinson FACSAriaIII, NY, USA).

[8] = test system: MGC-803 cells; test: Hoechst 33258 staining assay; assay type: cell-based, human; conditions: 48 h
Protocol: Hoechst 33258 is a dye that is utilized to identify the transitions of a cell’s nuclear morphology. To determine the morphological changes induced by compound 4j in MGC-803 cells, Hoechst 33258 staining was carried out. MGC-803 cells were treated with various concentrations (0, 1.0, 5.0, 10 µM) of compound 4j for 48 h, and stained with Hoechst 33258.
Cells grown on a sterile cover slip in six-well plates were treated with different concentrations of the test compound for 48 h. The culture medium containing compounds was removed, and the cells were fixed in 4% paraformaldehyde for 10 min. After being washed twice with PBS, the cells were stained with 0.5 mL of Hoechst 33258 (Beyotime, Shanghai, China) for 5 min, and then again washed twice with PBS. The stained nuclei were observed under an OLYMPUS 1X73 fluorescence microscope using 350 nm for excitation and 460 nm for emission.

[9] = test system: MGC-803, CNE-2, SK-OV-3, NCI-H460; test: MTT cytotoxicity assay, summary over the four cancer cell lines; assay type: cell-based; conditions: Homo sapiens; range over MGC-803, CNE-2, SK-OV-3, NCI-H460; read-out: IC50 values ranging against all the test cell lines
Protocol: as §1, §2

Row | SMILES | IC50 ([1]; Homo sapiens, MGC-803, 48 h) | IC50 ([2]; Homo sapiens, CNE-2, 48 h) | IC50 ([3]; Homo sapiens, SK-OV-3, 48 h) | IC50 ([4]; Homo sapiens, NCI-H460, 48 h) | IC50 ([5]; Homo sapiens, L02, 48 h) | other results
1 | COc1cccc(N2CC(COC(=O)[C@]3(C)CCC[C@]4(C)c5ccc(C(C)C)cc5CCC34)OC2=O)c1 (stereo partly drawn) [Compound 4f, (1R,4aS)-(3-(3-Methoxyphenyl)-2-Oxooxazolidin-5-yl)Methyl-7-Isopropyl-1,4a-Dimethyl-1,2,3,4,4a,9,10,10a-Octahydrophenanthrene-1-Carboxylate] | 19.7 ± 2.8 µM | 23.5 ± 1.2 µM | 43 ± 1.05 µM | 17.2 ± 1.38 µM | > 100 µM | 
2 | COc1ccc(N2CC(COC(=O)[C@]3(C)CCC[C@]4(C)c5ccc(C(C)C)cc5CCC34)OC2=O)cc1 (stereo partly drawn) [Compound 4g, (1R,4aS)-(3-(4-Methoxyphenyl)-2-Oxooxazolidin-5-yl)Methyl-7-Isopropyl-1,4a-Dimethyl-1,2,3,4,4a,9,10,10a-Octahydrophenanthrene-1-Carboxylate] | 6.1 ± 0.35 µM | 19.8 ± 0.3 µM | 4.1 ± 2.45 µM | 14.1 ± 8.04 µM | 26.36 ± 0.15 µM | 
3 | CC(C)c1ccc2c(c1)CCC1[C@](C)(C(=O)OCC3CN(c4ccccc4F)C(=O)O3)CCC[C@]21C (stereo partly drawn) [Compound 4h, (1R,4aS)-(3-(2-Fluorophenyl)-2-Oxooxazolidin-5-yl)Methyl-7-Isopropyl-1,4a-Dimethyl-1,2,3,4,4a, 9,10,10a-Octahydrophenanthrene-1-Carboxylate] | 49.9 ± 1.14 µM | > 100 µM | > 100 µM | > 100 µM | > 100 µM | 
4 | CC(C)c1ccc2c(c1)CCC1[C@](C)(C(=O)OCC3CN(c4cccc(F)c4)C(=O)O3)CCC[C@]21C (stereo partly drawn) [Compound 4i, (1R,4aS)-(3-(3-Fluorophenyl)-2-Oxooxazolidin-5-yl)Methyl-7-Isopropyl-1,4a-Dimethyl-1,2,3,4,4a, 9,10,10a-Octahydrophenanthrene-1-Carboxylate] | 11.5 ± 0.25 µM | 28 ± 3.95 µM | 9.86 ± 4.3 µM | 25.1 ± 4.5 µM | > 100 µM | 
5 | CC(C)c1ccc2c(c1)CCC1[C@](C)(C(=O)OCC3CN(c4ccc(F)cc4)C(=O)O3)CCC[C@]21C (stereo partly drawn) [Compound 4j, (1R,4aS)-(3-(4-Fluorophenyl)-2-Oxooxazolidin-5-yl)Methyl-7-Isopropyl-1,4a-Dimethyl-1,2,3,4,4a,9,10,10a-Octahydrophenanthrene-1-Carboxylate] | 3.82 ± 0.18 µM | 17.8 ± 4.69 µM | 4.66 ± 2.13 µM | 8.44 ± 0.36 µM | > 100 µM | cell cycle arrest [6]: mainly arrested the MGC-803 cells in the G1 phase; percentage of all apoptotic cells (early and late) ([7]; 5 µM): 28.5%; percentage of all apoptotic cells (early and late) ([7]; 10 µM): 34.3%; nuclear morphological changes (Hoechst 33258) ([8]; 10.0 µM): number of apoptotic nuclei significantly increased; nuclear morphological changes (Hoechst 33258) ([8]; 1.0 and 5.0 µM): some exhibited bright-blue fluorescence due to chromatin condensation; IC50 [9]: 3.82 to 17.8 µM; melting point: 112.8 to 117.5 °C
6 | CC(C)c1ccc2c(c1)CCC1[C@](C)(C(=O)OCC3CN(c4cccc(Cl)c4)C(=O)O3)CCC[C@]21C (stereo partly drawn) [Compound 4k, (1R,4aS)-(3-(3-Chlorophenyl)-2-Oxooxazolidin-5-yl)Methyl-7-Isopropyl-1,4a-Dimethyl-1,2,3,4,4a,9,10,10a-Octahydrophenanthrene-1-Carboxylate] | 7.43 ± 1.42 µM | 31.2 ± 2.5 µM | 10.3 ± 5.46 µM | 23 ± 2.62 µM | 37.2 ± 3.14 µM | 
7 | CC(C)c1ccc2c(c1)CCC1[C@](C)(C(=O)OCC3CN(c4ccc(Cl)cc4)C(=O)O3)CCC[C@]21C (stereo partly drawn) [Compound 4l, (1R,4aS)-(3-(4-Chlorophenyl)-2-Oxooxazolidin-5-yl)Methyl-7-Isopropyl-1,4a-Dimethyl-1,2,3,4,4a,9,10,10a-Octahydrophenanthrene-1-Carboxylate] | 5.82 ± 4.82 µM | 27.6 ± 1.5 µM | 15.7 ± 2.32 µM | 26.55 ± 0.08 µM | 44.5 ± 2.77 µM | melting point: 170.6 to 172.5 °C
8 | CC(C)c1ccc2c(c1)CCC1[C@](C)(C(=O)OCC3CN(c4cccc(Br)c4)C(=O)O3)CCC[C@]21C (stereo partly drawn) [Compound 4m, (1R,4aS)-(3-(3-Bromophenyl)-2-Oxooxazolidin-5-yl)Methyl-7-Isopropyl-1,4a-Dimethyl-1,2,3,4,4a,9,10,10a-Octahydrophenanthrene-1-Carboxylate] | 9.8 ± 2.37 µM | > 100 µM | > 100 µM | 25.1 ± 1.39 µM | 34.2 ± 2.88 µM | 
9 | CC(C)c1ccc2c(c1)CCC1[C@](C)(C(=O)OCC3CN(c4ccc(Br)cc4)C(=O)O3)CCC[C@]21C (stereo partly drawn) [Compound 4n, (1R,4aS)-(3-(4-Bromophenyl)-2-Oxooxazolidin-5-yl)Methyl-7-Isopropyl-1,4a-Dimethyl-1,2,3,4,4a,9,10,10a-Octahydrophenanthrene-1-Carboxylate] | 5.34 ± 3.45 µM | 42.5 ± 5.68 µM | > 100 µM | 30.2 ± 2.66 µM | > 100 µM | 
10 | C#Cc1cccc(N2CC(COC(=O)[C@]3(C)CCC[C@]4(C)c5ccc(C(C)C)cc5CCC34)OC2=O)c1 (stereo partly drawn) [Compound 4o, (1R,4aS)-(3-(3-Ehynylphenyl)-2-Oxooxazolidin-5-yl)Methyl-7-Isopropyl-1,4a-Dimethyl-1,2,3,4,4a,9,10,10a-Octahydrophenanthrene-1-Carboxylate] | 18.2 ± 2.36 µM | 51.4 ± 5.06 µM | 23.7 ± 2.02 µM | 72.4 ± 1.07 µM | > 100 µM | melting point: 125.2 to 130.4 °C
11 | CC(C)c1ccc2c(c1)CC[C@H]1[C@](C)(C(=O)O)CCC[C@]21C [DHA, Dehydroabietic acid] | 29.8 ± 2.06 µM | 62.6 ± 1.6 µM | > 100 µM | > 100 µM | > 100 µM | 
12 | N.N.[Cl][Pt][Cl] [cisplatin, reference compound] |  |  |  |  |  | IC50 ([1]; 48 h): 14.9 ± 1.78 µM; IC50 ([2]; 48 h): 21 ± 2.25 µM; IC50 ([3]; 48 h): 10.4 ± 0.25 µM; IC50 ([4]; 48 h): 24.1 ± 1.74 µM; IC50 ([5]; 48 h): 36.4 ± 0.79 µM

Reference: PMC6213879, “Synthesis and Biological Evaluation of Novel Dehydroabietic Acid-Oxazolidinone Hybrids for Antitumor Properties” (International Journal of Molecular Sciences, 2018)
